± gives the expanded uncertainty stated by the source.
Legend:
[1] = refractive index (other wavelength) (dimensionless); conditions: 101 kPa, Liquid, Wavelength=632.8 nm, ellipsometry
[2] = Crystal; DTA
[3] = refractive index (Na D-line) (dimensionless); conditions: 101.33 kPa, Liquid, ellipsometry

[Cl][Nd]([Cl])[Cl] [neodymium(III) chloride]
[1]
Conditions | refractive index
1053 K | 1.704 ± 0.001
1073 K | 1.701 ± 0.001
1093 K | 1.698 ± 0.001
1113 K | 1.695 ± 0.001
1133 K | 1.692 ± 0.001
1153 K | 1.689 ± 0.001
1173 K | 1.686 ± 0.001
1193 K | 1.683 ± 0.001
1213 K | 1.68 ± 0.001

Conditions | Normal melting temperature [°C]
[2] | 760 ± 4

[Cl-].[K+] [potassium chloride]
[1]
Conditions | refractive index
1073 K | 1.393 ± 0.001
1093 K | 1.39 ± 0.001
1103 K | 1.388 ± 0.001
1113 K | 1.386 ± 0.001
1123 K | 1.385 ± 0.001
1133 K | 1.383 ± 0.001
1153 K | 1.38 ± 0.001
1173 K | 1.377 ± 0.001
1193 K | 1.374 ± 0.001

[Cl][Sm]([Cl])[Cl] [samarium chloride]
[1]
Conditions | refractive index
973 K | 1.712 ± 0.001
1003 K | 1.705 ± 0.001
1023 K | 1.701 ± 0.001
1073 K | 1.691 ± 0.001
1103 K | 1.684 ± 0.001
1123 K | 1.68 ± 0.001
1153 K | 1.674 ± 0.001
1173 K | 1.672 ± 0.001

Conditions | Normal melting temperature [°C]
[2] | 678 ± 4

[Cl-].[Cl-].[Cl-].[Gd+3] [gadolinium(III) chloride]
refractive index
Conditions | 923 K | 973 K | 1023 K | 1073 K | 1123 K | 1173 K
[1] | 1.7 ± 0.002 | 1.685 ± 0.001 | 1.68 ± 0.001 | 1.675 ± 0.001 | 1.664 ± 0.001 | 1.662 ± 0.001
[3] | 1.7 ± 0.002 | 1.685 ± 0.001 | 1.68 ± 0.001 | 1.675 ± 0.001 | 1.664 ± 0.001 | 1.662 ± 0.001

Conditions | Normal melting temperature [°C]
[2] | 602 ± 4

[Cl-].[Cs+] [cesium chloride]
[1]
Conditions | refractive index
1023 K | 1.439 ± 0.001
1033 K | 1.438 ± 0.001
1053 K | 1.434 ± 0.001
1073 K | 1.43 ± 0.001
1093 K | 1.426 ± 0.001
1113 K | 1.423 ± 0.001
1133 K | 1.419 ± 0.001
1153 K | 1.415 ± 0.001
1173 K | 1.411 ± 0.001

[Cl-].[Na+] [sodium chloride]
[1]
Conditions | refractive index
1083 K | 1.41 ± 0.02
1093 K | 1.408 ± 0.02
1103 K | 1.407 ± 0.02
1113 K | 1.406 ± 0.02
1123 K | 1.405 ± 0.02
1133 K | 1.404 ± 0.02
1153 K | 1.402 ± 0.02
1173 K | 1.399 ± 0.02

[Cl][Ce]([Cl])[Cl] [cerium trichloride]
[1]
Conditions | refractive index
1103 K | 1.697 ± 0.001
1133 K | 1.691 ± 0.001
1153 K | 1.688 ± 0.001
1173 K | 1.685 ± 0.001
1193 K | 1.681 ± 0.001
1213 K | 1.678 ± 0.001
1233 K | 1.674 ± 0.001

Conditions | Normal melting temperature [°C]
[2] | 822 ± 4
